The text below walks through data of US10443044B2, “Generating cardiac progenitor cells from pluripotent stem cells using isoxazole or isoxazole like compounds” (IPS Heart, priority 2014, dated 2019).

Entries after “also recorded” stand apart in the source; their conditions may differ.

Test [1] has as its system DNA methyltransferase (DNMT). Nature of the test: DNA methyltransferase (DNMT) activity assay in small molecule treated SiPS. It is filed as cell-based, mouse. How it is done:
(§1) In order to direct SiPS towards cardiac lineage cells, they were treated with a small molecule (Isoxazole, 20 uM, Sigma-Aldrich or ISX-9, StemCell Technologies, Inc Vancouver, BC) for five days and analyzed for DNA methyltransferase (Dnmt) activity, cell proliferation, and cardiac gene expression.
Nuclear extracts were isolated using the NE-PER Nuclear and Cytoplasmic Extraction Kit (Thermo Scientific, IL USA). Total DNMT activity was determined using an EpiQuik DNA methyltransferase activity assay kit (Epigentek, Brooklyn, N.Y.) per manufacturer's protocol. Enzyme activity for samples and controls was measured on a microplate reader (Hidex Chameleon, Finland) at 450 nm and DNMT activity (OD/h/ml) was calculated according to the formula: (Sample OD−blank OD)/(sample volume)×1000.

For test [2], the system named is Nkx-2.5. The test can be described thus: Cardiac gene expression, RT-PCR and immunostaining. It is filed as cell-based, mouse. The method, then: as §1
Total RNA from small molecule treated and non-treated SiPS cells was isolated using RNeasy mini kit (Qiagen, Maryland, USA) and Omniscript Reverse Transcription kit (Qiagen, Maryland, USA) was used for the respective cDNA synthesis per manufacturer's instructions. […] PCR conditions included initial denaturation at 95° C. for 4 minutes, 32 cycles of denaturation at 95° C. for 1 minute, annealing at 55° C. for 1 minute, extension at 72° C. for 1 minute and final extension at 72° C. for 7 minutes. The PCR products were separated on 1.5% agarose gel, stained with ethidium bromide and visualized and photographed on a UV transluminator (Bio-Rad, USA).
For immunocytochemistry, differentiated colonies of SiPS were immunostained with respective specific primary antibodies (anti-Oct3/4, anti-Sox2, anti-Nanog antibodies, all at 1:100 concentration; Cell Signaling, Danvers, USA). […] The primary antibody-antigen reaction was detected with fluorescently conjugated specific secondary antibodies. […] Fluorescence signals were observed and photographed using fluorescence microscopy (Olympus; Tokyo, Japan).

Test [3] concerns IPS cells. The test can be described thus: Oxidant induced apoptosis, TUNEL assay. It is filed as cell-based, mouse. To be noted: pretreated IPS vs non-treated IPS, listed as small molecule. The method, then: In FIG. 3A, apoptosis was determined by TUNEL assay. […] All values were expressed as mean±SEM, * p<0.05 vs. control.
as §1

Test [4] concerns IPS cells. The test can be described thus: Cytochrome c translocation to cytoplasm after H2O2, immunostaining. It is filed as cell-based, mouse. The following applies: after exposure to H2O2 (100 μmol), vs non-treated IPS cells. How it is done: Immunostaining of cytochrome c in non-treated and small molecule, isoxazole or isoxazole like compounds treated IPS cells after exposure to H2O2 ([…]), (merged images with DAPI), (original magnifications; 200×).
as §1

For test [5], the system named is IPS cells. Nature of the test: Affymetrix array-based gene expression profiling. It is filed as cell-based, mouse. The method, then: as §1
(§2) Approximately 60% treated iPS cells were positive for Nkx-2.5. Given that posttranscriptional regulation is crucial for gene expression and cell survival molecular phenotypic analysis was performed, Affymetrix array-based gene expression profiling further confirmed 2-3 folds downregulation of Dnmt1, Dnmt3b and Max gene associated protein which were associated with global DNA hypomethylation and myc dependent cell transformation (see Table 1). Additionally, there was a 2-3 fold concomitant upregulation in the CCL7, CXCR2, CXCR5, integral membrane protein 2A, and ephrin A3. (FIG. 6).
Affymetrix array-based gene expression profiling further confirmed 2-3 folds downregulation of Dnmt1, Dnmt3b and Max gene associated protein which were associated with global DNA hypomethylation and myc dependent cell transformation. In addition, there was 2-3 folds concomitant upregulation of CCL7, CXCR2, CXCR5, integral membrane protein 2A, and EphrinA3.

In test [6] the test system is SiPS. The test can be described thus: Cell proliferation assay (MTS). It is filed as cell-based, mouse. The following applies: treated vs non treated SiPS, p<0.01; listed as small molecule. How it is done: as §1
The cell proliferation assay was performed with the use of the MTS [3-(4,5-dimethylthiazol-2-yl)-5-(3-carboxymethoxyphenyl)-2-(4-sulfophenyl)-2H-tetrazolium] assay according to the manufacturer's recommendations (Promega). The plates were read at 490 nm using an automated ELISA plate-reader for the quantity of formazan product which was directly proportional to the number of living cells in culture.

In test [7] the test system is Gαi. Nature of the test: Western blot of Gα protein (GPCR signaling). Format: cell-based, mouse. In general terms: Immunoblotting shows a protein as a band on a membrane.
Test [8] deals with IPS cells. Nature of the test: miR microarray analysis. To be noted: treated vs non-treated IPS cells. Format: cell-based, mouse. The method, then: FIGS. 7A-7E show miR-microarray analysis of small molecule, isoxazole like compounds treated IPS vs non-treated IPS cells. Microarray analysis showing miR expression profile in non-treated IPS cells was quite different from small molecule treated IPS cells.
as §2

In test [9] the test system is Human iPSC line (ACS-1021). The test can be described thus: Generation of cardiac progenitor cells from human iPS cells and differentiation into three lineages. It is filed as cell-based.
The test system of test [10] is Skeletal myoblasts (SMs) from Oct3/4-GFP+ transgenic mouse. The test can be described thus: Reprogramming of skeletal myoblasts to iPS cells. To be noted: 500 μM in 0.5% DMSO, 5-days; two weeks later. Format: cell-based. How it is done:
Skeletal myoblasts (SMs) purified from young male Oct3/4-GFP^+ transgenic mouse were treated with DNA methyltransferase inhibitor 500 μM RG-108 in 0.5% DMSO in knock out DMEM for 5-days. […] Although the research described herein was conducted in a murine model, the use of the same markers and agents will provide similar if not identical results in human cells and tissue.

Where [11] appears, read: Affymetrix array, treated vs non-treated iPS cells.
The mark [12] stands for this setting: IPs + Small Molecule, regulation down.
[13] abbreviates: IPs + Small Molecule, regulation up.
The mark [14] stands for this setting: basal differentiation conditions.
The mark [15] stands for this setting: hiPSC, 7 day small molecule treatment.

Consider `O=C(NC1CC1)c1cc(-c2cccs2)on1` [ISX-9, N-cyclopropyl-5-thiophen-2-yl-1,2-oxazole-3-carboxamide], for which the DNMT activity result in test [1] (SiPS, 20 uM, five days) is “completely abolished”. In addition, the “reduction in global DNA methylation” value in test [1] (SiPS, 20 uM, five days, FIG. 2) is reported as 95%. In addition, the “inhibition of DNA methyltransferase activity” value in test [1] (treated IPS cells vs nontreated IPS cells, FIG. 2) was 95%. Moreover, the “treated iPS cells positive for Nkx-2.5” value in [2] (SiPS, 20 uM, five days) is listed as “Approximately 60%”. The “Nkx-2.5 expression, RT-PCR” value in [2] (treated vs non treated IPS, p<0.01) is “significant upregulation”. Also, the “apoptosis (TUNEL positive cells)” value in test [3] is reported as “tolerant to apoptosis; also recorded: reduced the apoptosis; also recorded: Fewer TUNEL positive cells/microscopic field”. In addition, the “cytochrome c translocation to cytoplasm” value in test [4] was “significant decrease”. In addition, in test [5] (setting [11]), the “downregulation of Dnmt1, Dnmt3b and Max gene associated protein” value is given as 2-3 folds; the “upregulation of CCL7, CXCL2, CXCL5, integral membrane protein 2A and ephrin A3” value is recorded as 2-3 fold. In test [5] (setting [12]), the “Fold change Dnmt1, DNA methyltransferase” value was −1.612 fold; the “Fold change Dnmt3b, DNA methyltransferase 3B” value is −1.282 fold; the “Fold change Mga, MAX gene associated protein” value is on record as −1.104 fold. For the same compound, in [5] (setting [13]), the “Fold change Ccl7, chemokine (C-C motif) ligand 7” value is on record as 3.316 fold; the “Fold change Cox6b1, cytochrome c oxidase subunit VIb polypeptide 1” value turned out to be 2.546 fold; the “Fold change Cox16, COX16 cytochrome c oxidase assembly homolog” value is 3.006 fold; the “Fold change Cxcl2, chemokine (C-X-C motif) ligand 2” value is listed as 2.732 fold. In test [5] (setting [13]), the “Fold change Cxcl5, chemokine (C-X-C motif) ligand 5” value is on record as 2.137 fold; the “Fold change Efna3, ephrin A3” value is 2.088 fold; the “Fold change Itm2a, integral membrane protein 2A” value worked out at 2.255 fold; the “Fold change Itm2b, integral membrane protein 2B” value came to 2.18 fold. For the same compound, the “Fold change Uqcr10, ubiquinol-cytochrome c reductase complex III subunit X” value in [5] (setting [13]) is 2.298 fold. Also, in test [6], the “proliferative activity / mitogenic response” value is reported as “increased proliferative activity; also recorded: increase in mitogenic response”. Further, the “Gαi / Gα (pan) protein level” value in [7] (Western blot, treated vs untreated IPS cells) is reported as “significant upregulation”. In test [8], the “cardiac specific miR-133, miR-762 expression” value is on record as “upregulation”; the “pluripotency associated miR-290 cluster, miR-574-5p and let-7 family expression” value was “down regulation”. Further, in test [9] (20 μM, 7 days, RPMI/B27 minus insulin), the “expression of CPC markers including Nkx2.5 and GATA4, RT-PCR and immunostaining” value was “observed”. For the same compound, the “spontaneous beating (cardiomyocyte differentiation)” value in [9] (7 days treatment, then RPMI/B27 with insulin 7-10 days, end of 20 days) is given as “all the cells began spontaneous beating”. Moreover, in test [9] (setting [14]), the “percentage of CMs (TnT+) from Nkx2.5+ cells” value is recorded as 95.2±2.1%, the “percentage of ECs (CD31+) from Nkx2.5+ cells” value worked out at 90.3±2.5% and the “percentage of SMCs (α-SMA+) from Nkx2.5+ cells” value stood at 92.3±1.8%. For the same compound, in test [9] (setting [15]), the “purity of Nkx2.5 positive cells by FACS” value is 96.5±2.5%; the “transcription factors (Nkx2.5, GATA4 and ISL-1), immunofluorescence staining” value is given as “highly expressed”. Moreover, the “α-SMA and calponin expression, immunostaining” value in [9] (induced CPC in DMEM-F12 with TGFβ and PDGFBB, 10 days) was “observed”. Moreover, the “endothelial cell markers CD31 and VE-cadherin” value in [9] (induced CPC in EGM-2 medium, 10 days) is “expressed”. The “converting iPSC into cardiac progenitors including endothelial/vascular progenitors and smooth muscle cells” value in test [9] (overall conclusion) is “very effective”.

On to `O=C(O)C(Cc1c[nH]c2ccccc12)N1C(=O)c2ccccc2C1=O` [RG-108, N-phthalyl-L-tryptopha], for which the “generation of iPS cell colonies” value in [10] was “GFP^+ colonies of SM derived iPS cells (SiPS)”.

With pertussis toxin, the “effect on small molecule induced Gα (pan) upregulation” value in test [7] (concomitant use with small molecule in IPS cells) was “blocked”.
